{"source": "patent US20060293390A1", "about": "(priority 2003, published 2006)", "key": {"[1]": {"system": "bladder cancer cell line RT112", "assay": "Apoptosis: cytoplasmic histone-associated DNA fragments, photometric enzyme immunoassay (FIG. 1)", "type": "cell-based, human", "experimental": "FIG. 1: FIG. 1 is a representation of apoptosis measurements with a bladder cancer cell line RT112. […] Besides the control measurements without Diflunisal, there is also a “positive” control (CAM) registered with a defined calibrated system. Apoptosis was measured by determination of cytoplasmic histone-associated DNA fragments (mono- and oligonucleosomes) after induced cell death. The qualitative and quantitative in vitro determination of apoptosis in RT112 tumor cells was analyzed with a photometric enzyme immunoassay. In brief, RT112 cells were harvested, washed twice and resuspended in culture media to yield a density of 2.5×10^5/ml. 100 μl/well of the RT112 cell suspension were seeded into 96 well microtiter plates (obtainable from BECTON DICKINSON) and incubated overnight at 37° C. and 5% CO2. The supernatant was replaced by 90 μl pH-adjusted culture medium alone (control). Again, the cells were incubated for various time periods at 37° C. and 5% CO2. Supernatants of the cell cultures were discarded and RT112 cells were lysed in lysis buffer for 30 minutes at RT (25° C.). The cytoplasmic fractions were transferred into a streptavidin-coated microtiter plate, and the working procedure for the ELISA was performed according to the manufacturer's instructions (the ELISA test was obtained from BOEHRINGER […], Germany). […] But there is also a superimposed part of the third level."}, "leukemia cell line K-562": {"system": "leukemia cell line K-562", "assay": "Pore formation: PI-stained dead cells by flow cytometry (FIG. 2)", "type": "cell-based, human", "experimental": "FIG. 2: FIG. 2 is a representation of pore formation under conditions of interstitial albumin concentration of 0.2 mM. […] The dead cell fraction compared to the total cell number is measured in a flow cytometer. The experiments were conducted with the leukemia cell line K-562. […] Of minor interest is the second pore formation process starting at pH 6.4, because this process functions beyond the acidity milieu of most tumors. […] Pore formation was measured by determination of the necrotic cells measured by flow cytometry. Cultures of the leukemia cell line K-562 were harvested, and 5×10^5 cells were added into 6 ml tubes (BD). After centrifugation (250×g; 5 min; room temperature (25° C.)) the cells were resuspended in 900 μl pH-adjusted culture medium (pH 6.0-7.4; RPMI 1640 without NaHCO3; available from SIGMA). Then test substances were added to the samples and cells were incubated in a final volume of 1 ml at 37° C. in a water bath. After the incubation period the pH of the samples was measured, and the cells were washed and resuspended in 300 μl FACS medium (PBS+2% FCS and 0.1% NaN3). Cells were stained with propidium iodide (PI; available form SIGMA; 25 μl/25 μg/tube) for 15 minutes at RT (25° C.). Subsequently analysis of the stained cells was performed on an EPICS XL-MCL flow cytometer (available from COULTER, Krefeld, Germany), equipped with a 15 mW argon laser at an excitation wavelength of 488 nm. PI fluorescence was measured in the red channel (FL3; 620 nm longpass filter). Data acquisition and analysis was performed using XL-System II software (available from the company COULTER). It can be seen that Diflunisal causes pH-dependent pore formation in cancer cells."}, "[2]": {"system": "bladder cancer cell line RT112", "assay": "Lactate transport: enzymatic determination of lactate in supernatants (FIG. 3)", "type": "cell-based, human", "experimental": "There is plotted a control measurement which indicates lactate efflux in dependence of pH and without any Diflunisal influence. […] The lactate transport was measured by qualitative enzymatic determination of lactate in supernatants of RT112 cells at 340 nm. RT112 cells were harvested, washed twice and resuspended in culture media to yield a density of 2×10^5/ml. 500 μl/well of the RT112 cell suspension were seeded into 24 well microtiter plates (BD) and incubated overnight at 37° C. and 5% CO2. The supernatant was replaced by 450 μl pH-adjusted culture medium (pH 6.0-7.4) and 50 μl of the solution of preferred substances or 500 μl/well pH-adjusted culture medium alone (control). Again, the cells were incubated for 24 h at 37° C. and 5% CO2. The measurement of lactate in the supernatants at 340 nm (PERKIN-ELMER, Lambda 17. UV-VIS Spectrophotometer, Überlingen, Germany) was performed according to the manufacturer's instructions (SIGMA DIAGNOSTICS, Deisenhofen, Germany; Lactate: Quantitative, Enzymatic Determination of Lactate in Whole Blood at 340 nm (Procedure No. 826-UV))."}, "RT112 cells": {"system": "RT112 cells", "assay": "Respiration: mitochondrial activity, XTT assay (FIG. 4)", "type": "cell-based, human", "experimental": "This behavior reflects the apoptosis induction from the second affinity level of albumin. Increasing the concentrations higher than 1.0 mM also the whole respiration activity within the pH range 7.0-7.4 is diminished and falls to 0 at 1.5 mM. The same is true with concentrations up to 2.0 mM. This effect is introduced by apoptosis at pH 7.0-7.4, accelerated by the third and fourth affinity level of albumin. […] The mitochondrial activity of RT112 was determined using a colorimetric assay (XTT assay). […] The mitochondrial succinate-tetrazolium reductase system cleaves the tetrazolium salt XTT to formazan. The amount of this dye is directly correlated to the number of metabolically active cells, as the enzyme system is only active in respirating and viable cells. For this purpose, RT112 cells were harvested, washed twice and resuspended in culture media to yield a density of 2.5×10^5/ml. 100 μl/well of the RT112 cell suspension were seeded into 96 well microtiter plates (BECTON DICKINSON (BD), Heidelberg, Germany) and incubated overnight at 37° C. and 5% CO2. The supernatant was replaced by 90 μl pH-adjusted culture medium (pH 6.0-7.4) and 10 μl of preferred substances or 100 μl/well pH-adjusted culture medium alone (control). The cells were incubated for various time periods at 37° C. and 5% CO2. Thereafter, cells were washed twice and reincubated in fresh pH-adjusted culture medium. After the incubation period, pH of each well was determined with highly sensitive microelectrodes before 50 μl XTT labeling mixture was added. The cells were further incubated for additional 4 h at 37° C. and 5% CO2. The spectrophotometric absorbance of the samples was measured using a microtiter plate (ELISA) reader ([…], Denkendorf, Germany) at a wavelength of […] (630 nm as reference). Data acquisition and analysis was performed using BioLinx 2.1 software ([…])."}, "[3]": {"assay": "Resorption of orally administered Diflunisal: concentration in blood / interstitial milieu", "type": "in vivo"}, "[4]": {"system": "colon and colorectal cancer", "conditions": "cited from earlier work"}, "[5]": {"conditions": "1.0 mM Diflunisal, 0.06 mM albumin, third affinity level"}, "[6]": {"conditions": "3 Diflunisal molecules bound to albumin, 0.17 mM albumin"}, "[7]": {"conditions": "1.0 mM Diflunisal, 0.2 mM albumin"}, "[8]": {"conditions": "ratio 6:1 Diflunisal to albumin"}}, "note": "Values joined by “and” are separate entries in the source; they are usually repeats but may differ in a detail not shown here. Equal entries are not always repeated.", "data": [{"smiles": "O=C(O)c1cc(-c2ccc(F)cc2F)ccc1O", "note": "[Diflunisal, 5-(2,4-difluorophenyl)salicylic acid]", "values": [{"measurement": "pH at which apoptosis ends", "setting": "[1]; [5]", "result": 7.4, "unit": "pH"}, {"measurement": "pH at which apoptosis starts", "setting": "[1]; [5]", "result": 7.0, "unit": "pH"}, {"measurement": "pH range in which apoptosis occurs", "setting": "[1]; 4 to 6 Diflunisal bound to albumin", "result": "6.0-7.2 pH"}, {"measurement": "pH range in which apoptosis is achieved", "setting": "[1]; Diflunisal/albumin ratio 7-9, 0.17 mM albumin", "result": "7.0-7.4 pH"}, {"measurement": "starting pH of the second pore formation process", "setting": "leukemia cell line K-562; 0.2 mM albumin", "result": 6.4, "unit": "pH"}, {"measurement": "pH of pore formation, third affinity level of albumin", "setting": "leukemia cell line K-562; 1.25 mM to 1.5 mM Diflunisal, 0.2 mM albumin", "result": "≤ 7.0", "unit": "pH"}, {"measurement": "pH at which pore formation happens", "setting": "leukemia cell line K-562; [6]", "result": "< 6.5", "unit": "pH"}, {"measurement": "interstitial concentration from which pore formation starts in a therapy-relevant pH range", "setting": "leukemia cell line K-562; FIG. 2, 0.2 mM albumin", "result": "≥ 1.25", "unit": "mM"}, {"measurement": "pH at which pore formation can be produced", "setting": "leukemia cell line K-562; cancer cell suspensions, flow cytometer", "result": "< 7.0", "unit": "pH"}, {"measurement": "starting pH of a third transport system (fourth affinity level of albumin)", "setting": "leukemia cell line K-562; not shown in FIG. 2", "result": "7.2-7.3 pH"}, {"measurement": "interstitial Diflunisal concentration at which pore formation starts", "setting": "leukemia cell line K-562; pH<7.0", "result": "about 0.7 mM"}, {"measurement": "pH range of lactate antiport", "setting": "[2]; [6]", "result": "6.6-7.4 pH"}, {"measurement": "pH range in which lactate efflux is remarkably enhanced", "setting": "[2]; FIG. 3, against control without Diflunisal", "result": "6.0 to 7.2", "unit": "pH"}, {"measurement": "Diflunisal/lactate antiport", "setting": "[2]; three Diflunisal bound to albumin, first affinity stage", "result": "no antiport happens"}, {"measurement": "pH at which deviation from normal respiration activity reaches its maximum", "setting": "RT112 cells; [7]", "result": "~6.9", "unit": "pH"}, {"measurement": "pH at which inhibition of respiration activity starts", "setting": "RT112 cells; [7]", "result": "~7.2", "unit": "pH"}, {"measurement": "respiration activity within pH range 7.0-7.4", "setting": "RT112 cells; 1.5 mM Diflunisal (same up to 2.0 mM), 0.2 mM albumin", "result": 0}, {"measurement": "pH range of the new respiration blockade effect", "setting": "RT112 cells; 7 to 9 Diflunisal to albumin", "result": "7.0-7.4 pH"}, {"measurement": "blockade of the respiration chain", "setting": "RT112 cells; ratio 4:1 Diflunisal to albumin", "result": "significant increase in activity"}, {"measurement": "pH range in which the blockade effect declines to ineffectiveness", "setting": "RT112 cells; [8]", "result": "6.9 to 7.2", "unit": "pH"}, {"measurement": "pH up to which the respiration blockade reaches an optimum", "setting": "RT112 cells; [8]", "result": "≤ 6.9", "unit": "pH"}, {"measurement": "blockade of the respiration chain", "setting": "RT112 cells; three bound Diflunisal molecules per albumin", "result": "no substantial blockade"}, {"measurement": "concentration in blood", "setting": "[3]; 100 mg/kg administered orally", "result": "≤ 1.00", "unit": "mM"}, {"measurement": "dose at which the saturation concentration is reached", "setting": "[3]; oral administration", "result": 50, "unit": "mg/kg"}, {"measurement": "saturation concentration in blood", "setting": "[3]; oral administration", "result": 250, "unit": "µg/mL"}, {"measurement": "saturation concentration (resorption saturation)", "setting": "[3]; oral administration, converted from 250 μg/ml", "result": "1.00 mM and 1.0 mM"}, {"measurement": "interstitial concentration", "setting": "[3]; patient treatments, 1000 mg/day, Diflunisal to albumin ratio <2:1", "result": "< 0.3", "unit": "mM"}, {"measurement": "active concentration of Diflunisal", "setting": "[4]; Life Science 70, 2001, 37-48", "result": "suprapharmacological and intrinsically cytotoxic"}, {"measurement": "cancer cell kill", "setting": "[4]; patient treatments, 1000 mg/day", "result": "no cancer cell kill takes place"}]}]}
